Data reported in publication PMC8951016, “Computational Design and Biological Evaluation of Analogs of Lupin Peptide P5 Endowed with Dual PCSK9/HMG-CoAR Inhibiting Activity” (Pharmaceutics, 2022).

Key:
[1] = tested on: LDLR; parameters: method as in 3 sources, ref 48 = [48]; doi:10.1111/jfbc.12757; 48. Lammi C. Zanoni C. Arnoldi A. Aiello G. […] (P3), a peptide from lupin protein, absorbed by Caco-2 cells, modulates cholesterol metabolism in HepG2 cells via SREBP-1 activation J. Food B ||| ref 22 = [22]; doi:10.1016/j.jff.2017.02.009; 22. Zanoni C. Aiello G. Arnoldi A. Lammi C. Investigations on the hypocholesterolaemic activity of […] and LTFPGSAED, two peptides from lupin β-conglutin: Focus on LDLR and PCSK9 pathways J. Fu ||| ref 24 = [24]; PMID 33808034; doi:10.3390/nu13030863; 24. Lammi C. Aiello G. Bollati C. Li J. Bartolomei M. Ranaldi G. Ferruzza S. Fassi E.M.A. Grazioso G. Sambuy Y. Trans-Epithelial Transport, Metabolism, and Biological Activity Assessment of the Multi-; settings: via compensatory upregulation of SREBP-1; cited from earlier work
[2] = target: T1, HMG-CoAR (catalytic domain) (Homo sapiens, UniProt P04035); settings: cited from earlier work
T1 construct: finally the HMG-CoAR (cata- lytic domain) (2 µL); purchased Sigma-Aldrich
T1 sequence (P04035 426-888 limits assumed): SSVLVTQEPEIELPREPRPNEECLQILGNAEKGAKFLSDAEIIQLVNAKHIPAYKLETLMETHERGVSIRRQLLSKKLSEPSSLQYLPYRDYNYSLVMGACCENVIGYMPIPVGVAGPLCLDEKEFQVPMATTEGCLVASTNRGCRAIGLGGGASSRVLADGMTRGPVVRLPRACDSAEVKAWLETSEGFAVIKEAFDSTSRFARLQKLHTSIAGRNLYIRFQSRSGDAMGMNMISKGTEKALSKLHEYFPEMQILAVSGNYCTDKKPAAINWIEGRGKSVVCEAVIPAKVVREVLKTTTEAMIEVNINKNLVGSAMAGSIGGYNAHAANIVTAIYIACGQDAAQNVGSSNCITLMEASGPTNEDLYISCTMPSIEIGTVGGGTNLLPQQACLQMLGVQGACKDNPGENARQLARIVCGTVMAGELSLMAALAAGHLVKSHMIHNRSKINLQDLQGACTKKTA

[3] = tested on: SREBP-2; settings: cited from earlier work
Procedure: Further experiments were performed to verify the ability of these P5 analogs to modulate the LDLR pathway in HepG2 cells.

[4] = tested on: LDL uptake, HepG2 cells; experiment: Fluorescent LDL uptake in HepG2 cells in the presence of PCSK9; assay type: cell-based, human; settings: PCSK9 4 μg/mL, 2 h; vs untreated control cells; p < 0.05
Procedure: HepG2 cells (3 × 10^4/well) were seeded in 96-well plates and kept in complete growth medium for 2 days before treatment. The third day, cells were washed with PBS and then starved overnight (O/N) in DMEM without FBS and antibiotics. After starvation, they were treated with 4.0 μg/mL PCSK9 and 4.0 μg/mL PCSK9 + P5 and P5 analogs peptides (50 µM), and vehicle (H2O) for 2 h with at 37 °C under 5% CO2 atmosphere. Fluorescent LDL-uptake was finally assessed following optimized protocol. See Supplementary Materials for further details.
PBS for 1.5 h at RT. LDLR primary antibody solution (1:3000 in 5% BSA in PBS, 25 µL/well) was incubated O/N at +4 °C. […] The reaction was stopped with 2 M H2SO4 and then the absorbance at 450 nm was measured using the microplate reader Synergy H1 (Winoo-ski, VT, USA). After the read, cells were stained by adding 1 X Janus Green stain, incubat-ing for 5 min at RT. […]
Afterward 100 µL 0.5 M HCl for well were added and incubated for 10 min. After 10 sec-onds shaking, the OD at 595 nm was measured using the microplate reader Synergy H1 […]
Fluorescent LDL Uptake. […] The degree of LDL uptake was measured using the Synergy H1 fluo-rescent plate reader (Winooski, VT, USA) (excitation and emission wavelengths 540 and 570 nm, respectively). Fluorescent LDL-uptake was finally assessed following optimized […]

[5] = tested on: LDLR on HepG2 cell surface; experiment: In-cell western (ICW), LDLR on HepG2 surface in the presence of PCSK9; assay type: cell-based, human; settings: PCSK9 4 μg/mL, 2 h; vs untreated control cells; p < 0.001
Procedure: For the experiments, a total of 3 × 10^4 HepG2 cells/well were seeded in 96-well plates and treated with 4.0 μg/mL PCSK9-WT and 4.0 μg/mL PCSK9 + peptides P5 and/or P5 analogs (50 µM) and vehicle (H2O) for 2 h at 37 °C under 5% CO2 atmosphere. Thus, cells underwent to ICW assay following conditions already optimized. See Supplementary Materials for detailed information. […]
cLex Co., Nagano, Japan). The peptides (P5, P5-Best, P-H6A, and P5-S7A) were synthe-sized by the company GeneScript (Piscataway, NJ, USA) at >95% purity. The antibody against HMG-CoAR was bought from Abcam (Cambridge, UK). […]
HMG-CoAR Aactivity Assay. […] Subsequently, the samples were mixed and the absorbance at 340 nm read by the microplate reader Synergy H1 (Winooski, VT, USA) at time 0 and 10 min. The HMG-CoAR-dependent oxidation of NADPH and the inhibition properties of peptides were measured by absorbance reduction, which is directly proportional to enzyme activ- […]
In Vitro PCSK9-LDLR Binding Assay. […] The reaction was stopped with 2.0 M sulfuric acid and the absorbance at 450nm was measured using the Synergy H1 fluorescent plate reader […]

[6] = tested on: LDLR on HepG2 cell surface; settings: cellular level; cited from earlier work
[7] = tested on: LDL uptake, HepG2 cells; settings: cited from earlier work
[8] = tested on: mature PCSK9 (secreted); parameters: method as in PMID 35011066; settings: 250 µM, via modulation of HNF1-α; cited from earlier work
[9] = tested on: PCSK9; parameters: method as in 3 sources, ref 49 = [49]; PMID 35011066; doi:10.3390/nu14010193; 49. Macchi C. Greco M.F. Ferri N. Magni P. Arnoldi A. Corsini A. Sirtori C.R. Ruscica M. Lammi C. Impact of Soy β-Conglycinin Peptides on PCSK9 Protein Expression in HepG2 Cells Nutrients 2021 14 193 ||| ref 22 = [22]; doi:10.1016/j.jff.2017.02.009; 22. Zanoni C. Aiello G. Arnoldi A. Lammi C. Investigations on the hypocholesterolaemic activity of […] and LTFPGSAED, two peptides from lupin β-conglutin: Focus on LDLR and PCSK9 pathways J. Fu ||| ref 24 = [24]; PMID 33808034; doi:10.3390/nu13030863; 24. Lammi C. Aiello G. Bollati C. Li J. Bartolomei M. Ranaldi G. Ferruzza S. Fassi E.M.A. Grazioso G. Sambuy Y. Trans-Epithelial Transport, Metabolism, and Biological Activity Assessment of the Multi-; settings: 250 µM, via modulation of HNF1-α; cited from earlier work

## YDFYPSSTKDQQS [Peptide P3, a peptide from lupin protein]
[1]
  LDLR protein levels (P3, words): increase in the LDLR protein levels
[2]
  HMG-CoAR activity (P3, words): inhibits HMG-CoAR activity
[3]
  SREBP-2 activation (P3, words): without SREBP-2 activation

## PCSK9: PCSK9 added at 4 µg/mL to HepG2 cells
[4]
  reduction in uptake of fluorescent LDL by PCSK9 alone: 43.6 ± 9.6%
[5]
  decrease of LDLR level by PCSK9 alone: 25.4 ± 1.6%

## TVFTSWEEYLDWV [Pep2-8]
[6]
  restoration of LDLR protein levels vs P5 analogs: less efficient than P5 analogs
[7]
  restoration of hepatocyte LDL absorption vs P5 analogs: less efficient than P5 analogs

## YVVNPDNNEN [peptide from soybean β-Conglycinin]
[8]
  PCSK9 secretion (YVVNPDNNEN, words): reduces the PCSK9 protein level and its secretion
[2]
  HMG-CoAR inhibition (YVVNPDNNEN, words): able to inhibit the HMG-CoAR activity
[9]
  PCSK9 protein level (YVVNPDNNEN, words): reduces the PCSK9 protein level
